Laboratory results published in ChEMBL document CHEMBL5390236, “Biological production of epicoccamide-aglycone and its cytotoxicity” (Bioorg Med Chem Lett, 2023).
≈ marks a conversion by molar mass, not a printed value. Calls of active or inactive are those of the source. The rule behind the calls is not given here.

Experiments:
Staphylococcus aureus = assay: Antibacterial activity against Staphylococcus aureus; assay type: functional
HeLa [1] = assay: Cytotoxicity against human HeLa cells assessed as reduction in cell population by MTT assay relative to control; assay type: functional
[2] = Cytotoxicity against human WI-38 cells assessed as inhibition in cell growth at 100 uM by MTT assay relative to control; assay type: toxicity, cell-based
HeLa [3] = assay: Cytotoxicity against human HeLa cells assessed as reduction in cell population to midpoint between values of non-treated control and lowest population by MTT assay; assay type: functional, cell-based
HeLa [4] = assay: Cytotoxicity against human HeLa cells assessed as reduction in cell population to half by MTT assay; assay type: functional, cell-based
[5] = Cytotoxicity against human WI-38 cells assessed as reduction in cell population to midpoint between values of non-treated control and lowest population by MTT assay; assay type: toxicity, cell-based
Epicoccum nigrum [6] = assay: Antifungal activity against Epicoccum nigrum deltaepcB assessed as reduction in fungal growth at 80 ug by paper disk assay; assay type: functional, organism-based; conditions: dose 80.0 µg
Saccharomyces cerevisiae = assay: Antifungal activity against Saccharomyces cerevisiae assessed as reduction in fungal growth at 80 ug by paper disk assay; assay type: functional, organism-based; conditions: dose 80.0 µg
Epicoccum nigrum [7] = assay: Antifungal activity against wild type Epicoccum nigrum assessed as reduction in fungal growth at 80 ug by paper disk assay; assay type: functional, organism-based; conditions: dose 80.0 µg
Cryptococcus neoformans = assay: Antifungal activity against Cryptococcus neoformans assessed as reduction in fungal growth at 80 ug by paper disk assay; assay type: functional, organism-based; conditions: dose 80.0 µg
Escherichia coli = assay: Antibacterial activity against Escherichia coli; assay type: functional, organism-based
HeLa [8] = assay: Cytotoxicity against human HeLa cells assessed as inhibition in cell proliferation at 10 to 100 uM by MTT assay; assay type: functional, cell-based; conditions: dose 10-100 µM
WI-38 = assay: Cytotoxicity against human WI-38 cells assessed as inhibition in cell proliferation at 10 to 100 uM by MTT assay; assay type: toxicity, cell-based; conditions: wi-38, 100 µM, dose 10-100 µM
[9] = Cytotoxicity against human WI-38 cells assessed as reduction in cell population to half by MTT assay; assay type: toxicity, cell-based
[10] = Cytotoxicity against human WI-38 cells assessed as reduction in cell population by MTT assay relative to control; assay type: toxicity, cell-based
HeLa [11] = assay: Cytotoxicity against human HeLa cells assessed as relative cell population at 50 uM by MTT assay relative to control; assay type: functional
HeLa [12] = assay: Cytotoxicity against human HeLa cells assessed as relative cell population at 100 uM by MTT assay relative to control; assay type: functional
HeLa [13] = assay: Cytotoxicity against human HeLa cells assessed as inhibition in cell growth at 200 uM by MTT assay; assay type: functional, cell-based

In the case of `C[C@@H](CCCCCCCCC(=O)CCCCCCCCC[C@H](O)CO[C@@H]1O[C@H](CO)[C@@H](O)[C@H](O)[C@@H]1O)/C(O)=C1/C(=O)N[C@@H](Cc2ccc(O)cc2)C1=O`, the MIC (Staphylococcus aureus) is reported as 7.2 µg/mL (≈ 9.6 µM).
With `COc1cccc2c1C(=O)c1c(O)c3c(c(O)c1C2=O)C[C@@](O)(C(=O)CO)C[C@@H]3O[C@H]1C[C@H](N)[C@H](O)[C@H](C)O1` [DOXORUBICIN] the Emax (HeLa [1]) was 15%, the inhibition at 100 µM [2] was under 10% and the EC50 (HeLa [3]) was 4.3 µM. For the same compound, the IC50 (HeLa [4]) was 5.1 µM.
For `C[C@@H](CCCCCCCCCCCCCCO)C(=O)C1=C(O)N(C)[C@@H](C)C1=O`, the EC50 [5] was 9.1 µM, the Emax (HeLa [1]) was 23% and the Activity (Epicoccum nigrum [6]) was “inactive”. The Activity (Saccharomyces cerevisiae) was “Active”, the Activity (Epicoccum nigrum [7]) was “inactive” and the Activity (Cryptococcus neoformans) was “inactive”. The Activity (Escherichia coli) was “inactive”, the MIC (Staphylococcus aureus) was 1 µg/mL (≈ 2.53 µM) and the inhibition (HeLa [8]) was “Active”. The Activity (WI-38) was “Toxic”, the EC50 (HeLa [3]) was 12 µM and the IC50 (HeLa [4]; read-out: IC50) was 19 µM. For the same compound, the IC50 [9] was 15 µM and the Emax [10] was 20%.
For `C[C@@H](CCCCCCCCCCCCCCO[C@@H]1O[C@H](CO)[C@@H](O)[C@H](O)[C@@H]1O)C(=O)C1=C(O)N(C)[C@@H](C)C1=O`, the EC50 [5] was 34 µM, the Emax (HeLa [1]) was 3.2% and the Activity (Epicoccum nigrum [6]) was “inactive”. For the same compound, the Activity (Saccharomyces cerevisiae) was “Active”, the Activity (Epicoccum nigrum [7]) was “inactive” and the Activity (Cryptococcus neoformans) was “inactive”. For the same compound, the Activity (Escherichia coli) was “inactive”, the MIC (Staphylococcus aureus) was 64 µg/mL (≈ 115 µM) and the Activity (HeLa [11]) was 88%. For the same compound, the Activity (HeLa [12]) was 14%, the inhibition (HeLa [13]) was “Active” and the EC50 (HeLa [3]) was 70 µM. The IC50 (HeLa [4]; read-out: IC50) was 76 µM, the IC50 [9] was 38 µM and the Emax [10] was 4.6%.
`C[C@@H](CCCCCCCCC(=O)CCCCCCCCC[C@H](O)CO)/C(O)=C1/C(=O)N[C@@H](Cc2ccc(O)cc2)C1=O` showed an MIC (Staphylococcus aureus) of 2.8 µg/mL (≈ 4.76 µM).
